How the values were obtained:
Type in all cases: cell-based, Human
[1] = tested on: MSMB gene; assay: Quantitative RT-PCR of the MSMB transcript level in PC-3 cells
Method: (a) The relative amounts of EZH2 (left panel) and MSMB transcripts (right panel) in the indicated prostate cell lines were determined by quantitative RT-PCR with intron-spanning primers. Human prostate PC-3 cells (adenocarcinoma), LNCaP cells (carcinoma) and DU 145 cells (carcinoma) were cultured as monolayers in 50% Dulbecco's modified Eagle's medium (DMEM) and 50% Ham's F12, RPMI1640 and DMEM, respectively, supplemented with 10% fetal calf serum. PZ-HPV-7 cells, an immortalized cell line derived from normal human prostate cells, were cultured in keratinocyte-serum free medium supplemented with 5 ng/ml human recombinant epidermal growth factor and 0.05 mg/ml bovine pituitary extract. Total RNA was isolated using the Genelute Mammalian Total RNA Miniprep kit (Sigma, St. Louis, Mo., USA). A total of […] RNA was reverse-transcribed with oligo dT primer (Sigma) and the M-MulV reverse transcriptase (Fermentas GMBH, St. Leon-Rot, Germany). cDNA (1.5%) was analyzed by real-time PCR in triplicate using a Platinum SYBR Green qPCR SuperMix-UDG (Invitrogen, Paisly, UK) in a Rotorgene detection system (Corbett Research, Cambridge, UK) and normalized to the housekeeping gene hypoxanthine-guanine-phosphoribosyl-transferase (HPRT). […] The DNA was recovered with the Genelute PCR clean-up kit (Sigma) and analyzed by real-time PCR. […] The enrichment of DNA was calculated using the formula:fold enrichment=^2(CtlgG-CtAb), where Ct is the threshold cycle, IgG is the normal rabbit IgG and Ab is the specific antibody.
FIG. 2 concerns how EZH2 is recruited to the MSMB gene and causes trimethylation of H3K27. […] (b) Immunoblotting (upper panel) and quantitative RT-PCR analysis (lower panel) of PC-3 cell lysates, obtained after transfection with either a control siRNA (Ctr), that is, a scrambled version of a siRNA duplex for the housekeeping gene PPP1R8 ([…] (SEQ ID NO:71), Invitrogen) or an EZH2 siRNA (KD; […] (SEQ ID NO:72), Dharmacon, Chicago, Ill., USA). […] SIPP1 served as a loading control for the immunoblotting and ACTIN was used as control for normalization in the quantitative RT-PCR. […]

[2] = tested on: CpG island in the promoter region of the MSMB gene; assay: DNA bisulfite sequencing of the MSMB CpG island in PC-3 cells; conditions: following addition of the DNA methyltransferase inhibitor
Method: (a) PC-3 cells were treated for 48 hours with […] of the DNA methyltransferase inhibitor […]. Subsequently, the steady-state levels of the MSMB and EZH2 transcripts were determined by quantitative RT-PCR analysis with intron-spanning primers specific for the indicated genes. The data were expressed relative to the transcript level in the control condition. HPRT was used as a control for normalization. (b) A schematic representation of the MSMB gene on scale. The four exons are indicated by the black boxes and the two analyzed CpG regions by black stars. TSS, transcriptional start site. Methylated CG dinucleotides are denoted underneath by closed circles and unmethylated CGs by open circles. Genomic DNA of PC-3 cells or LNCaP cells was purified with the GenElute Mammalian Genomic DNA Miniprep kit of Sigma. Two microgram was digested overnight with BglII. The DNA was denatured with 0.3 M NaOH at […] for 30 minutes. Sodium bisulfite (3.3 M) and hydroquinone (0.5 mM) were added to the DNA and the mixture was incubated overnight at 55° C.
The DNA was purified with the PCR purification kit of Sigma, St Louis, Mo., USA. The DNA was desulfonated with […] for 15 minutes at 37° C. and precipitated by adding NH4Ac and ethanol. The pellet was air-dried and dissolved in 10 mM Tris and 1 mM ethylene-diaminete-traacetic acid at pH 8. […]

[3] = tested on: EZH2; assay: Quantitative RT-PCR of the EZH2 transcript level in PC-3 cells
Method: (§1) (a) The relative amounts of EZH2 (left panel) and MSMB transcripts (right panel) in the indicated prostate cell lines were determined by quantitative RT-PCR with intron-spanning primers. Human prostate PC-3 cells (adenocarcinoma), LNCaP cells (carcinoma) and DU 145 cells (carcinoma) were cultured as monolayers in 50% Dulbecco's modified Eagle's medium (DMEM) and 50% Ham's F12, RPMI1640 and DMEM, respectively, supplemented with 10% fetal calf serum. PZ-HPV-7 cells, an immortalized cell line derived from normal human prostate cells, were cultured in keratinocyte-serum free medium supplemented with 5 ng/ml human recombinant epidermal growth factor and 0.05 mg/ml bovine pituitary extract. […] A total of 1-5 mg RNA was reverse-transcribed with oligo dT primer (Sigma) and the M-MulV reverse transcriptase (Fermentas GMBH, St. Leon-Rot, Germany). cDNA (1.5%) was analyzed by real-time PCR in triplicate using a Platinum SYBR Green qPCR SuperMix-UDG (Invitrogen, Paisly, UK) in a Rotorgene detection system (Corbett Research, Cambridge, UK) and normalized to the housekeeping gene hypoxanthine-guanine-phosphoribosyl-transferase (HPRT). […] The DNA was recovered with the Genelute PCR clean-up kit (Sigma) and analyzed by real-time PCR. […]
(§2) FIG. 2 concerns how EZH2 is recruited to the MSMB gene and causes trimethylation of H3K27. […] The enrichment on MSMB is expressed as a %±s.e. of the control value (n=3-4). […]

[4] = tested on: PPP1R8; assay: Quantitative RT-PCR of the housekeeping gene PPP1R8 transcript in PC-3 cells; conditions: siRNA transfection 48 hours
Method: FIG. 2 concerns how EZH2 is recruited to the MSMB gene and causes trimethylation of H3K27. (a) ChIP assays were performed in PC-3 cells using rabbit antibodies against a synthetic peptide of human EZH2 (E. Viré et al. (2006), Nature 439:871-874), trimethylated H3K27 (Upstate), trimethylated H3K9 (Upstate) and control IgGs. […] (b) Immunoblotting (upper panel) and quantitative RT-PCR analysis (lower panel) of PC-3 cell lysates, obtained after transfection with either a control siRNA (Ctr), that is, a scrambled version of a siRNA duplex for the housekeeping gene PPP1R8 ([…] (SEQ ID NO:71), Invitrogen) or an EZH2 siRNA (KD; […] (SEQ ID NO:72), Dharmacon, Chicago, Ill., USA). The PC-3 cells were plated at 1.2×10^6 cells in a 10 cm plate. At 24 hours after plating, the cells were transfected with 300 nM of siRNA duplex using Lipofectamine 2000 (Invitrogen). At 48 hours after transfection, the cells were harvested. SIPP1 served as a loading control for the immunoblotting and ACTIN was used as control for normalization in the quantitative RT-PCR. […] The immunoprecipitated DNA was analyzed by quantitative PCR using primers specific for the MSMB gene (FIG. 1, Panel b). The enrichment on MSMB is expressed as a %±s.e. of the control value (n=3-4). […]

[5] = tested on: H3K27 trimethylation of the MSMB gene; assay: ChIP with anti-H3K27me3 antibodies on the MSMB gene in PC-3 cells; conditions: 48 hours after siRNA transfection
Method: as §1, §2

[6] = tested on: EZH2 association with the MSMB gene; assay: ChIP with anti-EZH2 antibodies on the MSMB gene in PC-3 cells; conditions: 48 hours, loss only evident in intron 1 (primer sets 3 and 4)
Method: as §1, §2

## Nc1ncn([C@@H]2O[C@H](CO)[C@@H](O)[C@H]2O)c(=O)n1 [50-azacytidine]
[1]
  reactivation of the MSMB gene: reactivated
[2]
  methylation of the CpG island in the promoter region (upstream CpG island) of the MSMB gene: decreased
[2]; listed as 5′ azacytidine
  methylation of the CpG island in the promoter region (upstream CpG island) of the MSMB gene: decreased methylation

## CC(/C=C/C(=O)NO)=C\[C@@H](C)C(=O)c1ccc(N(C)C)cc1 [TSA, trichostatin A]
[1]; TSA 50 ng/ml for nine hours, relative to control condition
  increase of the MSMB transcript level: six
[3]; TSA 50 ng/ml for nine hours
  expression level of EZH2: did not affect

## AAGACUCUGAAUGCAGUUGCU (SEQ ID NO:72) [EZH2 siRNA]
[4]
  transcript level of control housekeeping gene PPP1R8: not affected
[1]; siRNA transfection 48 hours, relative to control siRNA
  increase in the expression of MSMB: three
[5]
  H3K27 trimethylation of the MSMB gene in intron 1 (ChIP): loss of H3K27 trimethylation
[3]; siRNA transfection 48 hours
  knockdown of the EZH2 transcript: about 70%
[6]
  EZH2 associated with the MSMB gene (ChIP): less EZH2 was associated
